# Experiments:
# Type in all cases: cell-based, Chinese hamster
# [1] = test system: sialidase; assay: Sialidase activity in culture supernatant (Amplex Red Neuraminidase assay); conditions: 1 μM DEX from day 2, absorbance at 560 nm
# Method: Sialidase activity was analyzed using the Amplex Red Neuraminidase (Sialidase) Assay Kit (Invitrogen, Carlsbad, Calif.). Briefly, neuraminidase in the sample is used to desialylate fetuin. This assay utilizes Amplex Red to detect H2O2 generated by oxidation of the desialylated galactose residues on the fetuin by galactose oxidase. The H2O2, in the presence of HRP, reacts stoichiometrically with Amplex Red reagent to generate the red-fluorescent oxidation product, resorufin 5, which is then analyzed either fluorometrically or spectrophotometrically. In each assay, 50 μL of working solution (100 μM Amplex Red, 0.2 U/mL HRP, 4 U/mL galactose oxidase and 500 μg/mL fetuin) was added into each microplate well containing 50 μL of diluted cell culture supernatant. After 30 minutes incubation at 37° C., samples were analyzed for absorbance at 560 nm using a microplate reader.
# As shown in FIG. 2A and FIG. 2B, increased sialidase activity was associated with the decreased cell viabilities in both the DEX-treated and untreated cultures.
# [2] = test system: CHO cells; assay: Shake flask CHO culture in serum free medium: viable cell density, viability, growth rate, productivity (Example 3)
# Method: The CHO cell line used in this study was subcloned from DG44 parental cells and cultured in a proprietary chemically-defined growth medium.
# The experiments were carried out in 250-mL shake flasks (VWR international) with starting volumes of 100 mL and initial cell densities of 6×10^5 cells/mL. The cultures were placed on a shaker platform (VWR international) at 150 rpm and maintained at 37° C. and 6% CO2 for ten days. The cultures were sampled daily and the pH adjustment using 1M sodium carbonate, and fed with glucose and glutamine every two days in order to maintain them at certain levels. Cell density and viability were measured off-line a Bioprofile Analyzer 400 (Nova Biomedical Corporation, Waltham, Mass.).
# (§1) The eluted protein was quantified using a 10-level standard curve.
# [3] = test system: CHO cells; assay: Fed-batch 10-L bioreactor CHO culture: VCD, viability, titer
# Method: Bioreactor experiments were performed in 10-L bioreactors (Sartorius Stedim Biotech, France) with starting working volumes of 5 L. Agitation, pH and dissolved oxygen were controlled at 150 rpm, 7.05, and 50% air saturation, respectively. Temperature was initially controlled at 37° C. and was shifted to lower temperature during the culture to extend the culture viability. The bioreactors were operated in a batch fed mode and were fed daily starting on day 3 with the proprietary feed medium to maintain adequate concentrations for glucose and other nutrients. Samples were taken during the cell culture process and analyzed for cell density, cell viability, substrates and metabolites.
# as §1
# Different from shake flask runs, bioreactor runs were extended to 14 days, the culture temperature was shifted to a lower temperature during the late exponential phase of the culture, and a proprietary feeding medium was used instead of feeding only glucose and glutamine.
# [4] = test system: CHO cells secreting an IgG-fusion protein; assay: Shake flask CHO culture: SEC-HPLC of high molecular weight (HMW) species in secreted IgG-fusion protein
# Method: The CHO cell line used in this study was originally subcloned from DG44 parental cells and cultured in a protein-free proprietary growth medium. The host cells were genetically engineered to secrete an IgG-fusion protein under the control of CMV promoter.
# The experiments were carried out in 250-mL shake flasks (VWR international) with starting volumes of 100 mL and initial cell densities of 6×10^5 cells/mL. Shake flasks were placed on a shaker platform (VWR international) at 150 rpm rotating speed. Cells were cultured under standard humidified condition at 37° C. and 6% CO2, for a ten-day duration with daily pH adjustment using 1M sodium carbonate, and fed with glucose and glutamine every two days in order to maintain them at certain level. Cell density, cell viability and substrates/metabolites were offline-analyzed by an automated cell counting system Cedex (Innovatis AG, Bielefeld, Germany) and a Bioprofile Analyzer 400 (Nova Biomedical Corporation, Waltham, Mass.). Supernatant from each culture harvest was collected for SEC analysis.
# The main components of HMW species were dimers and trimers formed covalently or non-covalently and categorically considered to be protein aggregates.
# [5] = test system: CHO cells; assay: Fed-batch 7-L, 500-L and 5000-L bioreactors with dexamethasone in the feed medium (Example 5)
# Method: The CHO cell line used in this study was subcloned from DG44 parental cells and cultured in a proprietary growth medium.
# Bioreactor experiments were performed in 7-L, 500-L and 5000-L bioreactors with starting working volumes around 3 L, 300 L and 3000 L, respectively. All the bioreactor runs started at 37° C. and shifted to lower temperature when cells entered production phase in order to extend the cell culture period. pH, and dissolved oxygen were maintained at 7.05, and 50% air saturation. Agitation rates for 7-L, 500-L and 5000-L scales are 180, 75 and 60 rpm respectively. All the bioreactor experiments were conducted in a fed batch mode with daily feeding of a protein-free medium in order to maintain the glucose and other nutrients at certain levels. […] Samples were taken during the cell culture process and analyzed for cell density, cell viability, substrates and metabolites.
# The titer, sialic acid and HMW content assay were performed as described in the previous examples.
# [6] = 10 μM DEX added two days after inoculation
# [7] = treatment concentration 0.1 μM, added two days after inoculation
# [8] = treatment concentration 1 μM, added two days after inoculation
# [9] = treatment concentration 10 μM, added two days after inoculation
# [10] = day 14, 1 μM DEX added on day 2
# [11] = day 14, 1 μM DEX added on day 7
structure (smiles),measurement,setting,value
"C[C@@H]1C[C@H]2[C@@H]3CCC4=CC(=O)C=C[C@]4(C)[C@@]3(F)[C@@H](O)C[C@]2(C)[C@@]1(O)C(=O)CO [DEX, dexamethasone]",absorbance measurement of sialidase activity,[1]; day 4,0.006±0.002
same,absorbance measurement of sialidase activity,[1]; day 10,0.024±0.003
same,final cell viability (day 10),[2]; 0.01 μM DEX added two days after inoculation,53.1%
same,percent increase of cell viability induced by DEX,"[2]; 0.1 μM DEX, with 1 μM RU-486",4.7%
same,percent increase of cell viability induced by DEX,"[2]; 0.1 μM DEX, without RU-486",30.5%
same,maximum specific productivity (normalized),[2]; 1 μM DEX added day 2,7.0±0.6 ×10^−9
same,normalized volumetric productivity,"[2]; 1 μM DEX added day 2, same for all cultures",6.5
same,reduction in cell growth rates compared to control,"[2]; 1 μM DEX added day 2, the day after DEX addition",~30%
same,viability on day 10,[2]; 1 μM DEX added on day 0,63%
same,viability on day 10,[2]; 1 μM DEX added on day 2,68%
same,viability on day 10,[2]; 1 μM DEX added on day 4,72%
same,viability on day 10,[2]; 1 μM DEX added on day 6,74%
same,percent increase of cell viability induced by DEX,"[2]; 1 μM DEX, with 1 μM RU-486",5.7%
same,percent increase of cell viability induced by DEX,"[2]; 1 μM DEX, without RU-486",32.6%
same,Peak VCD,[2]; [6],6.5 ×10^6 cell/mL
same,final cell viability (day 10),[2]; [6],64.0%
same,Final VCD,[2]; [7],7.64 ×10^6 cells/mL
same,Peak VCD,[2]; [7],7.99 ×10^6 cells/mL
same,"Viability (final, day 10)",[2]; [7],72.3%
same,Final VCD,[2]; [8],8.40 ×10^6 cells/mL
same,Peak VCD,[2]; [8],9.02 ×10^6 cells/mL
same,"Viability (final, day 10)",[2]; [8],75.8%
same,Final VCD,[2]; [9],7.38 ×10^6 cells/mL
same,Peak VCD,[2]; [9],7.49 ×10^6 cells/mL
same,"Viability (final, day 10)",[2]; [9],82.3%
same,maximum cell density,"[3]; 1 μM DEX added on either day 2 or day 7, day 8",approximately 8.3 ×10^6 cell/mL
same,Cell viability,"[3]; day 6, all conditions",94%
same,Normalized protein titer,"[3]; day 7, prior to the maximum VCD",approximately 5.5
same,increase of day 14 normalized titer vs without DEX,[3]; day 14,20%
same,Final VCD,[3]; [10],4.1 ×10^6 cell/mL
same,percent viability,[3]; [10],55%
same,Final VCD,[3]; [11],3.5 ×10^6 cell/mL
same,percent viability,[3]; [11],39%
same,harvest normalized titer,"[3]; day 14, both bioreactors with DEX",12.5
same,decrease of percentage of HMW species,[4]; 0.1 μM DEX alone,approximately 17%
same,reduction of protein aggregation (percentage of HMW species),"[4]; 1 μM DEX added day 2, supernatant day 10, vs control",15%
same,Day 14 average viability,[5]; 7-L scale,88%
same,Day 14 titer (normalized value),[5]; 7-L scale,13.2
same,Peak sialic acid level (normalized value),[5]; 7-L scale,16.0
same,Day 14 average viability,[5]; 500-L scale,84%
same,Day 14 titer (normalized value),[5]; 500-L scale,11.6
same,Peak sialic acid level (normalized value),[5]; 500-L scale,18.0
same,Day 14 average viability,[5]; 5000-L scale,91%
same,Day 14 titer (normalized value),[5]; 5000-L scale,13.6
same,Peak sialic acid level (normalized value),[5]; 5000-L scale,19.0
same,drop of sialic acid by the end of the runs,[5]; all scales,approximately 2.6 units

# — patent US10030064B2, “Mammalian cell culture processes for protein production” (priority 2009, dated 2018)
